This note sets out measurements from ChEMBL document CHEMBL2074428, “New alpha(1)-adrenoceptor antagonists derived from the antipsychotic sertindole - carbon-11 labelling and pet examination of brain uptake in the cynomolgus monkey” (Nucl Med Biol, 2004).

The data set has as its target ATP-dependent translocase ABCB1 (Homo sapiens, UniProt P08183). Briefly: TP_TRANSPORTER: transepithelial transport in Caco2 cells. The note with it: caco-2. In kind it is functional, cell-based. A general note: Caco-2 cells form a polarised layer with tight junctions and transporters.

Chain of ATP-dependent translocase ABCB1 (P08183 whole entry): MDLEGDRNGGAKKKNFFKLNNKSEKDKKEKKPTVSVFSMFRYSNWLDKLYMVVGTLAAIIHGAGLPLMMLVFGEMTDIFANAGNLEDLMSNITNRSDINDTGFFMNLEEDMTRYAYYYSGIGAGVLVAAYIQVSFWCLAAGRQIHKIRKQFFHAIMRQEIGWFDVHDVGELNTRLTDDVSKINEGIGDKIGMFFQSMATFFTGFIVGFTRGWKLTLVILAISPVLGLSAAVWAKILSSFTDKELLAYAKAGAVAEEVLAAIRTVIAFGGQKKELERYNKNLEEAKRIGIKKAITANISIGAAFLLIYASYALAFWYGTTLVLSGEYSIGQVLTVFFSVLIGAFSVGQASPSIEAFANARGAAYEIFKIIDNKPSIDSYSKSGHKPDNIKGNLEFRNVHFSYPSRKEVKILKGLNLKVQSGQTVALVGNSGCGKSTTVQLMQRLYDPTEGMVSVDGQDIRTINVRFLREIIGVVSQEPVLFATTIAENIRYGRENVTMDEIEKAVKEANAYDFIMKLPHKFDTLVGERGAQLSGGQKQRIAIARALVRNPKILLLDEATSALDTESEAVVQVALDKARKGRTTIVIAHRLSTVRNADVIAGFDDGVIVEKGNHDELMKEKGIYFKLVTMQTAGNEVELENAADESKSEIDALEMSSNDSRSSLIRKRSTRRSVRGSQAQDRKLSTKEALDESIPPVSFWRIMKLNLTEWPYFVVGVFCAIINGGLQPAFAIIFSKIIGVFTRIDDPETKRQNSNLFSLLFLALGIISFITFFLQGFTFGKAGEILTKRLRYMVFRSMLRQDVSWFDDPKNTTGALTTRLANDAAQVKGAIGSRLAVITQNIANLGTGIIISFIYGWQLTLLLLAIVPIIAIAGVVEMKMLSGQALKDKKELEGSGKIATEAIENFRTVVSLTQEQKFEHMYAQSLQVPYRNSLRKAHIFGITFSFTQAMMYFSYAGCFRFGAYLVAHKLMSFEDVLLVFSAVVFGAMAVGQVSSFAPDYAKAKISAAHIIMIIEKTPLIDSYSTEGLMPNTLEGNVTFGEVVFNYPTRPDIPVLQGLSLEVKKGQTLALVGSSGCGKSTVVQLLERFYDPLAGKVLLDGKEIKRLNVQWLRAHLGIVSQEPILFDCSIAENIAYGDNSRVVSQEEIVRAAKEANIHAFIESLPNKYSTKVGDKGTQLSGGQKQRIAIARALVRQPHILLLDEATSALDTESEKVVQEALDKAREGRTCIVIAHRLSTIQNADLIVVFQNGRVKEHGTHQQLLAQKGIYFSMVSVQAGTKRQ

On to `[11CH3]n1cc(-c2ccc3c(c2)c(C2CCN(CCN4CCNC4=O)CC2)cn3-c2ccc(F)cc2)nn1`, for which the Activity entry is “substrate [+]”. Turning to `[11CH3]n1nnc(-c2ccc3c(c2)c(C2CCN(CCN4CCNC4=O)CC2)cn3-c2ccc(F)cc2)n1`, the Activity result was “substrate [+]”.
